pKd: −log10 of the molar value.
Legend:
[1] = biological target: T1, AtSB2L1 (Arabidopsis thaliana, UniProt Q8S8S9); assay: [3H] salicylic acid-binding assay with unlabeled competitors, Arabidopsis homolog produced in E. coli; conditions: 1 mM unlabeled competitor; protein produced in E. coli; no competitor = 70 dpm
T1 construct: made in house
T1 sequence (Q8S8S9 1-263): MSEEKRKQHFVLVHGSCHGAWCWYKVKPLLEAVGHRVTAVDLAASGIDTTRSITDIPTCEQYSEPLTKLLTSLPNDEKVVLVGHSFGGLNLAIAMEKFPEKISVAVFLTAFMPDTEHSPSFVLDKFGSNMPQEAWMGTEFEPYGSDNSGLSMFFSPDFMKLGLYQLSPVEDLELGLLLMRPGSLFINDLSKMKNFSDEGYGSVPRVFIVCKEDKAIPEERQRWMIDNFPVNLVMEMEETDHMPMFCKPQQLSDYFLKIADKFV
Experimental: (§1) [^3H] Salicylic acid-binding assay: The protein extracts/fractions were mixed with 0.1 μM [^3H]-SA (23.6 Ci/mmol) (custom synthesized by NEN Life Science Products) in Buffer A to bring the total volume of the reaction mixture to 150 μl. The extracts were then incubated on ice for 60 minutes. Spin columns were prepared by packing Sephadex G-25 fine (Pharmacia) equilibrated with Buffer A into 1 ml disposable syringe barrels. The G-25 was packed to 1 ml and equilibrated by centrifuging at 1000 g for 4 minutes in a H-1000B rotor (Sorvall) at 4° C. The entire binding mixture was loaded onto the column and centrifuged under similar conditions. Bound [^3H]-SA which is present in the flow through, was mixed with 4 ml scintillation cocktail (Ecolite, ICN) and measured in a liquid scintillation counter. Appropriate controls were also assayed.
(§2) To rigorously establish that the 28 KDa protein from plant extract was SABP2, the cloned cDNA was expressed in E. coli as His6-tagged fusion protein and the recombinant protein was purified on a Ni column and tested for SA-binding activity (Table IV).

[2] = biological target: T2, AtSB2L5 (Arabidopsis thaliana, UniProt Q9LFT6); assay: as above; conditions: 1 mM unlabeled competitor; protein produced in E. coli; no competitor = 12927 dpm
T2 construct: made in house; host or cells: E. coli
T2 sequence (Q9LFT6 1-258): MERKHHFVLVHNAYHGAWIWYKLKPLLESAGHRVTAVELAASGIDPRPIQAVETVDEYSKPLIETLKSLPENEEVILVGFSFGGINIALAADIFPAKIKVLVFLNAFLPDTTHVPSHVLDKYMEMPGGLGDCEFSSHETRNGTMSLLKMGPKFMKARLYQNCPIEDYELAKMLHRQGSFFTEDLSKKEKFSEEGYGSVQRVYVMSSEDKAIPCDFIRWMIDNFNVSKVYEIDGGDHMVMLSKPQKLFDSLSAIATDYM
Experimental: as §1, §2

[3] = biological target: T3, AtSB2L9 (Arabidopsis thaliana, UniProt O23171); assay: as above; conditions: 1 mM unlabeled competitor; protein produced in E. coli; no competitor = 16486 dpm
T3 construct: made in house; host or cells: E. coli
T3 sequence (O23171 1-256): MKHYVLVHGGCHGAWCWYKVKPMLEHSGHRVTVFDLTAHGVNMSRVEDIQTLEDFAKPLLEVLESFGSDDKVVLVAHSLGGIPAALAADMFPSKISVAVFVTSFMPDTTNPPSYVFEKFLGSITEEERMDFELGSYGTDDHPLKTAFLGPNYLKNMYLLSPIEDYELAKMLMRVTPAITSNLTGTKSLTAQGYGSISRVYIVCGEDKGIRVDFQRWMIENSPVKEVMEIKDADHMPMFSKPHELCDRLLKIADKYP
Experimental: as §1, §2

[4] = tested on: SABP2; assay: SA / analog binding to SABP2 isolated from tobacco plant extracts; conditions: fold higher
Text: (§3) SA is a key component in the signal transduction pathway(s) leading to activation of certain defense responses in plants after pathogen attack. Previous studies have identified several proteins, including catalase and ascorbate peroxidase, through which the SA signal might act. A novel nucleic acid molecule encoding the SA-binding protein 2, SABP2, is described herein. SABP2 was identified through the use of a high specific activity ligand, [^3H]-SA (15–30 Ci/mmole). […] For example, SABP2 is much less abundant in leaf tissue than the catalase, and has an apparent native mass (Mr) of between about 20 and 40 kDa, as compared with the native molecular mass of catalase, which is approximately 240 kDa.
(§4) As one example, assays for SA analogues may be based on the ability of analogues to bind SABP2 or to compete with SA for binding to SABP2. […] Since SABP2 is part of the signal transduction pathway leading to disease resistance, it may be possible to enhance induction of disease resistance using analogues of SA which are not readily metabolized by the plants. […] This glucoside is not active for induction of disease resistance.
(§5) [^3H] […] Bound [^3H]-SA which is present in the flow through, was mixed with 4 ml scintillation cocktail (Ecolite, ICN) and measured in a liquid scintillation counter. […]

[5] = biological target: lipase from Mucor meihei (Rhizomucor miehei, UniProt P19515); assay: Lipase activity assay with or without SA, control lipase; assay type: biochemical; conditions: data not shown
Experimental: Since SABP2 contains the catalytic triad and the lipase signature sequence, the recombinant protein was tested for lipase activity. […] Addition of SA to the reaction stimulated lipase activity 3–6 fold (FIG. 6B). This stimulation required SA binding to SABP2, since it was abolished in reaction conditions that prevented SA binding. […] The lipase activity assay was performed as described by Yang et al. with modifications to allow SA binding to SABP2. The standard 1 ml assay mixture consisted of 1 mM substrate in 50 mM Bicine pH 8.0, 0.05% Triton-X100. Following a 60 min preincubation on ice in absence or presence of 1 mM SA, the reaction was allowed to proceed at 24° C. for 60 min. A 100 mM stock solution of p-NPM or p-NPP was prepared in acetonitrile. Lipase activity was estimated colorimetrically (Unicom UV1, Spectronic Unicom, UK) by measuring the liberation of para-nitrophenol from p-NPP or p-NPM at 410 nm. Measurements from control reactions without SABP2 were subtracted from each reaction. For non SA-binding conditions, Tris-HCl pH 8.0 (50 mM) was used in placed of Bicine buffer.

[6] = tested on: SABP2 expression; assay: Induction of SABP2 expression in plants by chemical treatment; assay type: in vivo, tobacco; conditions: without TMV infection
Text: Expression studies have been initiated and already indicate that the tobacco SABP2 and one of its putative Arabidopsis ortholog, AtSB2L9, are induced in plants resisting infection by viral [tobacco mosaic virus(TMV) or turnip crinkle virus (TCV)] or bacterial (P. s.) pathogens. These studies can be extended to other plant-pathogen interactions, e.g. P. s. pv tabaci, and P.s. pv tomato with or without AvrPto in tomato or Pto-transformed Nicotiana benthamiana, for SABP2 and P. s. and Peronospora parasitica for AtSB2L5, AtSB2L9, and other putative orthologs in Arabidopsis. […] Therefore, induction of SABP2 and its Arabidopsis ortholog(s) by ethylene can be tested in a similar fashion.

[7] = tested on: PR genes; conditions: for induction of PR genes or enhanced disease resistance; cited from earlier work
[8] = biological target: T4, SABP2 (Nicotiana tabacum, UniProt Q6RYA0); assay: SA / analog binding to SABP2 isolated from tobacco plant extracts; set-up: from tissue; host or cells: tobacco leaves, partially purified extract
T4 sequence (Q6RYA0 1-260): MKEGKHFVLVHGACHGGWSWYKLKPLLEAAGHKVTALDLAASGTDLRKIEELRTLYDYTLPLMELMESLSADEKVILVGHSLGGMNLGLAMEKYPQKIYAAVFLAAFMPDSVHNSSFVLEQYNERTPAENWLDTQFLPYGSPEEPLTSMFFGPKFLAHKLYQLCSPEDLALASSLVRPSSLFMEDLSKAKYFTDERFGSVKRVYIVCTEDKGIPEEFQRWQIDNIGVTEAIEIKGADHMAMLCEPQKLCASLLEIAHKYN
Text: as §3, §4, §5

[9] = biological target: T4, SABP2; assay: [3H] salicylic acid-binding assay with unlabeled competitors, recombinant His6-SABP2 produced in E. coli; set-up: Full-length tobacco SABP2 was PCR amplified; His6 (N); made in house; host or cells: E. coli BL21 (DE3), vector pET28a; species or system tobacco (Nicotiana tabacum); conditions: for Bound [^3H] SA SABP2: 1 mM unlabeled competitor, protein produced in E. coli, no competitor = 140206 dpm; for inhibition of ^3H-SA binding by unlabeled competitor (in words): large molar excess of unlabeled competitor, recombinant His6-tagged protein; for binding to SABP2 (in words): recombinant, purified SABP2
Experimental: as §1
Expression of Recombinant SABP2 in E. coli. Full-length tobacco SABP2 was PCR amplified to introduce BamH1 enzyme sites at both ends using the primers F2 ([…]) (SEQ ID NO:51) and F3 ([…]) (SEQ ID NO:52). The amplified product was cloned into the BamH1 site of pET28a (Novagen) and sequenced. Recombinant SABP2 (rSABP2) was synthesized as a soluble protein in E. coli strain BL21 (DE3) and affinity purified by Ni-NTA agarose chromatography (Novagen) as described by the manufacturer. rSABP2 was further purified on a Mono Q column as described earlier.
as §2

[10] = biological target: T4, SABP2; assay: Lipase activity assay of purified recombinant SABP2 (pNP palmitate / pNP myristate) with or without SA; assay type: biochemical, tobacco; set-up: Full-length tobacco SABP2 was PCR amplified; His6 (N); made in house; host or cells: E. coli BL21 (DE3), vector pET28a
[11] = biological target: T4, SABP2; set-up: from tissue; host or cells: tobacco leaves, partially purified extract; conditions: partially purified plant extracts; more avidly than SA (Du and Klessig, 1997); cited from earlier work

Sequence of lipase from Mucor meihei (P19515 95-363): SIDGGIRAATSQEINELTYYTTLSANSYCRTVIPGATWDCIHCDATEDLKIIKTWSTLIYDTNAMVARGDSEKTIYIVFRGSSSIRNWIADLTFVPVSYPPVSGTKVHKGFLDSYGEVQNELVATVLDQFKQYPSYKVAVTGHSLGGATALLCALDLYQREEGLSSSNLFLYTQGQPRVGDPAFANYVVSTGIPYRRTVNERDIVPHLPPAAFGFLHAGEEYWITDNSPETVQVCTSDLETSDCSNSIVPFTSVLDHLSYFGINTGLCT

Structure (SMILES)	Bound [^3H] SA AtSB2L1 [1] [dpm]	Bound [^3H] SA AtSB2L5 [2] [dpm]	Bound [^3H] SA AtSB2L9 [3] [dpm]	Bound [^3H] SA SABP2 [9] [dpm]	binding to SABP2 (in words) [9]	affinity of SABP2 for BTH relative to SA ([8]; SABP2 isolated from plant extracts, fold greater)	affinity of SABP2 for SA relative to that between SA and tobacco catalase [4]	stimulation of lipase activity by SA [5]	induction of SABP2 expression by treatment alone [6]	Biological Activity of competitor [7]	pKd ([8]; SABP2 from tobacco, reversible binding, read-out: apparent Kd of SA binding to SABP2)	SA binding to SABP2 in Tris buffer (in words) ([9]; 50 mM bicine replaced with 50 mM Tris-HCl pH 8.0)	inhibition of ^3H-SA binding by unlabeled competitor (in words) [9]	stimulation of SABP2 lipase activity by SA ([10]; 1 mM SA, 50 mM Bicine pH 8.0, substrates pNP palmitate, pNP myristate)	stimulation of SABP2 lipase activity by SA under conditions that prevent SA binding ([10]; Tris-HCl pH 8.0 (50 mM) in place of Bicine)	binding of BTH to SABP2 relative to SA [11]
O=C(O)c1ccccc1O [SA, salicylic acid]	42	121	36	160			100–150 fold	did not exhibit stimulation	insufficient	active	~7.05	does not bind	inhibited effectively	3–6 fold	abolished	
O=C(O)c1ccc(O)cc1 [4-HBA, 4-hydroxybenzoic acid]	65	4757	3620	95634	only minimal binding					inactive			not			
O=C(O)c1c(O)cccc1O [2,6-DHBA, 2,6-dihydroxybenzoic acid]	36	1742	1072	924						active						

The next lines start with results.

Bound [^3H] SA AtSB2L1 [1] [dpm]	Bound [^3H] SA AtSB2L5 [2] [dpm]	Bound [^3H] SA AtSB2L9 [3] [dpm]	Bound [^3H] SA SABP2 [9] [dpm]	binding to SABP2 (in words) [9]	affinity of SABP2 for BTH relative to SA ([8]; SABP2 isolated from plant extracts, fold greater)	Structure (SMILES)	affinity of SABP2 for SA relative to that between SA and tobacco catalase [4]	stimulation of lipase activity by SA [5]	induction of SABP2 expression by treatment alone [6]	Biological Activity of competitor [7]	pKd ([8]; SABP2 from tobacco, reversible binding, read-out: apparent Kd of SA binding to SABP2)	SA binding to SABP2 in Tris buffer (in words) ([9]; 50 mM bicine replaced with 50 mM Tris-HCl pH 8.0)	inhibition of ^3H-SA binding by unlabeled competitor (in words) [9]	stimulation of SABP2 lipase activity by SA ([10]; 1 mM SA, 50 mM Bicine pH 8.0, substrates pNP palmitate, pNP myristate)	stimulation of SABP2 lipase activity by SA under conditions that prevent SA binding ([10]; Tris-HCl pH 8.0 (50 mM) in place of Bicine)	binding of BTH to SABP2 relative to SA [11]
				did not bind	approximately 15 fold	c1ccc2snnc2c1 [BTH, benzothiadiazole]			insufficient							about 15 fold
38	64	42	260			O=C(O)c1cc(Cl)ccc1O [5-CSA, 5-chlorosalicylic acid]				active						
